From patent publication US20200016159A1, “N3-CYCLICALLY SUBSTITUTED THIENOURACILS AND USE THEREOF” (Bayer Aktiengesellschaft, priority 2016, published 2020)

Biological target: T1, human adenosine A2b receptor (Homo sapiens, UniProt P29275)
T1 sequence (P29275 1-332): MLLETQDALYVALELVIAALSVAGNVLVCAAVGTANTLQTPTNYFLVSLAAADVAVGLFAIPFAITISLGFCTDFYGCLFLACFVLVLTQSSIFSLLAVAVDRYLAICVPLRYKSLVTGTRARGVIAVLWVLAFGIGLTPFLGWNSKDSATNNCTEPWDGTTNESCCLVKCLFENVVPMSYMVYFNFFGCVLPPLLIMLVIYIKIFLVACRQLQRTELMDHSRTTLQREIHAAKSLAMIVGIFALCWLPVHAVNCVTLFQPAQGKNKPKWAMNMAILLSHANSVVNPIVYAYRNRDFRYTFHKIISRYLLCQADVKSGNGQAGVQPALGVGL
Assay: Cellular in vitro reporter gene test for A2b receptor activity (antagonism of NECA)
Format: cell-based
Parameters: expressed in transfected cells; host or cells: CHO-K1 (Chinese hamster ovary) with CRE-luciferase reporter
Details: recombinant CHO-K1 cells, CRE-luciferase reporter, co-incubation with EC50 concentration of NECA, 3 hours
How it was run: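 CHO-K1 cells expressing recombinant human A2b receptor plus a CRE-driven firefly luciferase reporter. Compounds co-incubated with NECA at its same-day EC50 concentration; luminescence read 3 hours after NECA addition. IC50 values, sometimes means of several determinations rounded to two significant figures.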

| IC50 [nM] | SMILES |
| --- | --- |
| 1200 | COCCn1c(=O)n(C2(C(F)(F)F)CC2)c(=O)c2c(C)c(Cn3nc[nH]c3=O)sc21 [Example 89, 1-(2-Methoxyethyl)-5-methyl-6-[(5-oxo-4,5-dihydro-1H-1,2,4-triazol-1-yl)methyl]-3-[1-(trifluoromethyl)cyclopropyl]thieno[2,3-d]pyrimidine-2,4(1H,3H)-dione] |
| 41 | CCC1(n2c(=O)c3c(C)c(CN4CCNC4=O)sc3n(CCC(F)(F)F)c2=O)CC1 [Example 106, 3-(1-Ethylcyclopropyl)-5-methyl-6-[(2-oxoimidazolidin-1-yl)methyl]-1-(3,3,3-trifluoropropyl)thieno[2,3-d]pyrimidine-2,4(1H,3H)-dione] |
| 290 | CCC1(n2c(=O)c3c(C)c(Cn4nc[nH]c4=O)sc3n(CCC(F)(F)F)c2=O)CC1 [Example 107, 3-(1-Ethylcyclopropyl)-5-methyl-6-[(5-oxo-4,5-dihydro-1H-1,2,4-triazol-1-yl)methyl]-1-(3,3,3-trifluoropropyl)thieno[2,3-d]pyrimidine-2,4(1H,3H)-dione] |
| 110 | CCC1(n2c(=O)c3c(C)c(CN4CCNC4=O)sc3n(CCOC)c2=O)CC1 [Example 108, 3-(1-Ethylcyclopropyl)-1-(2-methoxyethyl)-5-methyl-6-[(2-oxoimidazolidin-1-yl)methyl]thieno[2,3-d]pyrimidine-2,4(1H,3H)-dione] |
| 640 | CCC1(n2c(=O)c3c(C)c(Cn4nc[nH]c4=O)sc3n(CCOC)c2=O)CC1 [Example 109, 3-(1-Ethylcyclopropyl)-1-(2-methoxyethyl)-5-methyl-6-[(5-oxo-4,5-dihydro-H-1,2,4-triazol-1-yl)methyl]thieno[2,3-d]pyrimidine-2,4(1H,3H)-dione] |
| 0.59 | Cc1c(CN2CCNC2=O)sc2c1c(=O)n(C1CCC1)c(=O)n2CCC(F)(F)F [Example 110, 3-Cyclobutyl-5-methyl-6-[(2-oxoimidazolidin-1-yl)methyl]-1-(3,3,3-trifluoropropyl)thieno[2,3-d]pyrimidine-2,4(1H,3H)-dione] |
| 1.7 | Cc1c(CN2CCNC2=NC#N)sc2c1c(=O)n(C1CCC1)c(=O)n2CCC(F)(F)F [Example 111, [1-{[3-Cyclobutyl-5-methyl-2,4-dioxo-1-(3,3,3-trifluoropropyl)-1,2,3,4-tetrahydrothieno[2,3-d]pyrimidin-6-yl]methyl}imidazolidin-2-ylidene]cyanamide] |
| 1.2 | COC(=O)N=C1NCCN1Cc1sc2c(c1C)c(=O)n(C1CCC1)c(=O)n2CCC(F)(F)F [Example 112, Methyl [1-{[3-cyclobutyl-5-methyl-2,4-dioxo-1-(3,3,3-trifluoropropyl)-1,2,3,4-tetrahydrothieno[2,3-d]pyrimidin-6-yl]methyl}imidazolidin-2-ylidene]carbamate] |
| 2 | Cc1c(CN2CCNC(=O)C2=O)sc2c1c(=O)n(C1CCC1)c(=O)n2CCC(F)(F)F [Example 113, 3-Cyclobutyl-6-[(2,3-dioxopiperazin-1-yl)methyl]-5-methyl-1-(3,3,3-trifluoropropyl)thieno[2,3-d]pyrimidine-2,4(1H,3H)-dione] |
| 1.9 | Cc1c(Cn2nc[nH]c2=O)sc2c1c(=O)n(C1CCC1)c(=O)n2CCC(F)(F)F [Example 114, 3-Cyclobutyl-5-methyl-6-[(5-oxo-4,5-dihydro-1H-1,2,4-triazol-1-yl)methyl]-1-(3,3,3-trifluoropropyl)thieno[2,3-d]pyrimidine-2,4(1H,3H)-dione] |
| 4.3 | COCCn1c(=O)n(C2CCC2)c(=O)c2c(C)c(CN3CCNC3=O)sc21 [Example 115, 3-Cyclobutyl-1-(2-methoxyethyl)-5-methyl-6-[(2-oxoimidazolidin-1-yl)methyl]thieno[2,3-d]pyrimidine-2,4(1H,3H)-dione] |
| 4 | COCCn1c(=O)n(C2CCC2)c(=O)c2c(C)c(CN3CCNC3=NC#N)sc21 [Example 116, [1-{[3-Cyclobutyl-1-(2-methoxyethyl)-5-methyl-2,4-dioxo-1,2,3,4-tetrahydrothieno[2,3-d]pyrimidin-6-yl]methyl}imidazolidin-2-ylidene]cyanamide] |
| 1.3 | COCCn1c(=O)n(C2CCC2)c(=O)c2c(C)c(CN3CCNC3=NC(=O)OC)sc21 [Example 117, Methyl [1-{[3-cyclobutyl-1-(2-methoxyethyl)-5-methyl-2,4-dioxo-1,2,3,4-tetrahydrothieno[2,3-d]pyrimidin-6-yl]methyl}imidazolidin-2-ylidene]carbamate] |
| 14 | COCCn1c(=O)n(C2CCC2)c(=O)c2c(C)c(CN3CCNC(=O)C3=O)sc21 [Example 118, 3-Cyclobutyl-6-[(2,3-dioxopiperazin-1-yl)methyl]-1-(2-methoxyethyl)-5-methylthieno[2,3-d]pyrimidine-2,4(1H,3H)-dione] |
| 12 | COCCn1c(=O)n(C2CCC2)c(=O)c2c(C)c(Cn3nc[nH]c3=O)sc21 [Example 119, 3-Cyclobutyl-1-(2-methoxyethyl)-5-methyl-6-[(5-oxo-4,5-dihydro-H-1,2,4-triazol-1-yl)methyl]thieno[2,3-d]pyrimidine-2,4(1H,3H)-dione] |
| 3.2 | Cc1c(CN2CCNC2=O)sc2c1c(=O)n(C1CC(F)(F)C1)c(=O)n2CCC(F)(F)F [Example 120, 3-(3,3-Difluorocyclobutyl)-5-methyl-6-[(2-oxoimidazolidin-1-yl)methyl]-1-(3,3,3-trifluoropropyl)thieno[2,3-d]pyrimidine-2,4(1H,3H)-dione] |
| 15 | Cc1c(CN2CCNC2=NC#N)sc2c1c(=O)n(C1CC(F)(F)C1)c(=O)n2CCC(F)(F)F [Example 121, [1-{[3-(3,3-Difluorocyclobutyl)-5-methyl-2,4-dioxo-1-(3,3,3-trifluoropropyl)-1,2,3,4-tetrahydrothieno[2,3-d]pyrimidin-6-yl]methyl}imidazolidin-2-ylidene]cyanamide] |
| 4.2 | COC(=O)N=C1NCCN1Cc1sc2c(c1C)c(=O)n(C1CC(F)(F)C1)c(=O)n2CCC(F)(F)F [Example 122, Methyl [1-{[3-(3,3-difluorocyclobutyl)-5-methyl-2,4-dioxo-1-(3,3,3-trifluoropropyl)-1,2,3,4-tetrahydrothieno[2,3-d]pyrimidin-6-yl]methyl}imidazolidin-2-ylidene]carbamate] |
| 10 | Cc1c(CN2CCNC(=O)C2=O)sc2c1c(=O)n(C1CC(F)(F)C1)c(=O)n2CCC(F)(F)F [Example 123, 3-(3,3-Difluorocyclobutyl)-6-[(2,3-dioxopiperazin-1-yl)methyl]-5-methyl-1-(3,3,3-trifluoropropyl)thieno[2,3-d]pyrimidine-2,4(1H,3H)-dione] |
| 26 | Cc1c(Cn2nc[nH]c2=O)sc2c1c(=O)n(C1CC(F)(F)C1)c(=O)n2CCC(F)(F)F [Example 124, 3-(3,3-Difluorocyclobutyl)-5-methyl-6-[(5-oxo-4,5-dihydro-H-1,2,4-triazol-1-yl)methyl]-1-(3,3,3-trifluoropropyl)thieno[2,3-d]pyrimidine-2,4(1H,3H)-dione] |
| 33 | COCCn1c(=O)n(C2CC(F)(F)C2)c(=O)c2c(C)c(CN3CCNC3=O)sc21 [Example 125, 3-(3,3-Difluorocyclobutyl)-1-(2-methoxyethyl)-5-methyl-6-[(2-oxoimidazolidin-1-yl)methyl]thieno[2,3-d]pyrimidine-2,4(1H,3H)-dione] |
| 14 | COCCn1c(=O)n(C2CC(F)(F)C2)c(=O)c2c(C)c(CN3CCNC3=NC#N)sc21 [Example 126, [1-{[3-(3,3-Difluorocyclobutyl)-1-(2-methoxyethyl)-5-methyl-2,4-dioxo-1,2,3,4-tetrahydrothieno[2,3-d]pyrimidin-6-yl]methyl}imidazolidin-2-ylidene]cyanamide] |
| 10 | COCCn1c(=O)n(C2CC(F)(F)C2)c(=O)c2c(C)c(CN3CCNC3=NC(=O)OC)sc21 [Example 127, Methyl [1-{[3-(3,3-difluorocyclobuty)-1-(2-methoxyethyl)-5-methyl-2,4-dioxo-1,2,3,4-tetrahydrothieno[2,3-d]pyrimidin-6-yl]methyl}imidazolidin-2-ylidene]carbamate] |
| 36 | COCCn1c(=O)n(C2CC(F)(F)C2)c(=O)c2c(C)c(CN3CCNC(=O)C3=O)sc21 [Example 128, 3-(3,3-Difluorocyclobutyl)-6-[(2,3-dioxopiperazin-1-yl)methyl]-1-(2-methoxyethyl)-5-methylthieno[2,3-d]pyrimidine-2,4(1H,3H)-dione] |
| 280 | COCCn1c(=O)n(C2CC(F)(F)C2)c(=O)c2c(C)c(Cn3nc[nH]c3=O)sc21 [Example 129, 3-(3,3-Difluorocyclobutyl)-1-(2-methoxyethyl)-5-methyl-6-[(5-oxo-4,5-dihydro-H-1,2,4-triazol-1-yl)methyl]thieno[2,3-d]pyrimidine-2,4(1H,3H)-dione] |
| 14 | Cc1c(CN2CCNC2=O)sc2c1c(=O)n(C1COC1)c(=O)n2CCC(F)(F)F [Example 130, 5-Methyl-3-(oxetan-3-yl)-6-[(2-oxoimidazolidin-1-yl)methyl]-1-(3,3,3-trifluoropropyl)thieno[2,3-d]pyrimidine-2,4(1H,3H)-dione] |
| 68 | Cc1c(CN2CCNC2=NC#N)sc2c1c(=O)n(C1COC1)c(=O)n2CCC(F)(F)F [Example 131, [1-{[5-Methyl-3-(oxetan-3-yl)-2,4-dioxo-1-(3,3,3-trifluoropropyl)-1,2,3,4-tetrahydrothieno[2,3-d]pyrimidin-6-yl]methyl}imidazolidin-2-ylidene]cyanamide] |
